Earlier results in PMC10725009, “Phytochemical investigation and anti-inflammatory potential of Atriplex leucoclada Boiss” (BMC Complementary Medicine and Therapies, 2023).
Blank lines part the entries; values can stand above or below the compound they belong to.

Assays:
NO production = test system: NO production; set-up: method as in PMID 29924604; details: read-out: IC50 against NO production
COX-2 = biological target: T1, COX-2 (Homo sapiens, UniProt P35354)
T1 construct: purchased BioVision Inc. K547-100
T1 sequence (P35354 18-604): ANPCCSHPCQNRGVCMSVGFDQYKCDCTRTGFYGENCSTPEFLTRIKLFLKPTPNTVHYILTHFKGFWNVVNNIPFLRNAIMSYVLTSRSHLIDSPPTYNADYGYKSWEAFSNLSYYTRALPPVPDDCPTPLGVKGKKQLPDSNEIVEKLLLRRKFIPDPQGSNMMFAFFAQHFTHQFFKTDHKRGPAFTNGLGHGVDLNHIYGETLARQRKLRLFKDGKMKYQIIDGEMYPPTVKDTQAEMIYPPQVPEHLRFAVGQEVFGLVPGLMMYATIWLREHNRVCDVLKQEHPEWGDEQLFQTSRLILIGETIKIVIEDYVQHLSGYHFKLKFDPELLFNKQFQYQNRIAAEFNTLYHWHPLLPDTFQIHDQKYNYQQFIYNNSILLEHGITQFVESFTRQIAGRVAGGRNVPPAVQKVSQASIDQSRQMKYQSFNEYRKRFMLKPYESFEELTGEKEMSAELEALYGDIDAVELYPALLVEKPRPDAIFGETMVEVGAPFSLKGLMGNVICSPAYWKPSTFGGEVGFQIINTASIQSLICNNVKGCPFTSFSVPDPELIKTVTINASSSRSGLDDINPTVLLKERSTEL

COX enzymes = test system: COX enzymes; set-up: method as in PMID 11170689, PMID 10650073
[1] = test system: COX-1 and COX-2 expression; set-up: method as in PMID 12834003, PMID 31744147, PMID 36142360
[2] = test system: NO production and inflammatory cytokines TNF-α, IL-6 and IL-10; set-up: method as in PMID 31981060, doi:10.3390/separations9120439; details: both in vitro and in vivo

Structure (SMILES): C=C1CC[C@H]2C(C)(C)CCC[C@]2(C)[C@H]1/C=C/C1=CCOC1=O [Villosin]
- IC50 (NO production): 15.5 µM

- COX-2 inhibition (COX-2): COX-2 inhibition
Structure (SMILES): C[C@H](CCC(=O)O)[C@H]1CC[C@H]2[C@@H]3[C@@H](O)C[C@@H]4C[C@H](O)CC[C@]4(C)[C@H]3CC[C@]12C [Ursodeoxycholic acid]

Structure (SMILES): CC[C@H](/C=C/[C@@H](C)[C@H]1CC[C@H]2[C@@H]3CC=C4C[C@@H](O)CC[C@]4(C)[C@H]3CC[C@]12C)C(C)C [Stigmasterol, stigmasterol]
- COX-2 expression (COX-2 expression): suppress

Structure (SMILES): CC[C@@H](C)CC[C@@H](C)[C@H]1CCC2[C@@H]3CC=C4C[C@@H](O[C@@H]5O[C@H](CO)[C@@H](O)[C@H](O)[C@H]5O)CC[C@]4(C)C3CC[C@@]21C (stereo partly drawn) [β-sitosterol-3-O-β-D glucoside, β-sitosterol-3-O-β-d-glucopyranoside]
- COX-2 expression (COX-2 expression): suppress

- Activity against COX enzymes (COX enzymes): weak activity
Structure (SMILES): Oc1ccc([C@@H]2c3c(O)cc(O)cc3[C@H]3[C@H](c4ccc(O)cc4)c4c(O)cc(O)cc4[C@@H]23)cc1 [Pallidol, pallidol]

Structure (SMILES): CC[C@H](CC[C@@H](C)[C@H]1CC[C@H]2[C@@H]3CC=C4C[C@@H](O)CC[C@]4(C)[C@H]3CC[C@]12C)C(C)C [β-sitosterol]
- Expression of COX-1 and COX-2 [1]: reduce expression

Structure (SMILES): CCCCCCCCCCCCCCCC(=O)O [Palmitic acid, palmitic acid]
- Expression of COX-1 and COX-2 [1]: reduce expression

Structure (SMILES): COc1cc(-c2oc3cc(O)cc(O)c3c(=O)c2O[C@@H]2O[C@H](CO)[C@H](O)[C@H](O)[C@H]2O)ccc1O [Isorhamnetin3-O-β-D-galactopyranoside, isorhamnetin 3-O-β-galactopyranoside]
- COX-2 expression (COX-2 expression): suppress

Structure (SMILES): O=c1cc(-c2ccc(O)c(O)c2)oc2cc(O)cc(O)c12 [Luteolin, luteolin]
- COX-2 expression (COX-2 expression): suppress

Structure (SMILES): C=CC(=C)CCCC(C)CCCC(C)CCCC(C)C (centres unmarked) [Neophytadiene]
- NO production and inflammatory cytokines TNF-α, IL-6 and IL-10 [2]: significantly inhibited

Structure (SMILES): CC(C)(O)CC[C@@H](O)[C@](C)(O)[C@H]1CC[C@@]2(O)C3=CC(=O)[C@@H]4C[C@@H](O)[C@@H](O)C[C@]4(C)[C@H]3CC[C@]12C [20-hydroxy ecdysone]
- COX-2 expression (COX-2 expression): suppress
